Experimental data as given in US6472526B1, “Imidazole derivatives having an inhibitory activity for farnesyl transferase and process for preparation thereof” (LG Chemical Ltd., priority 1997, dated 2002).

What was measured:
Ras farnesyl transferase [1] = target: T1, Ras farnesyl transferase (Homo sapiens, UniProt P49354+P49356); test: In vitro inhibitory activity for Ras farnesyl transferase, K-Ras substrate; type: biochemical; conditions: in vitro farnesyl transferase assay, K-Ras; read-out: K-Ras IC50
T1 construct: made in house

Ras farnesyl transferase [2] = target: T1, Ras farnesyl transferase; test: In vitro inhibitory activity for Ras farnesyl transferase, H-Ras substrate; type: biochemical; conditions: recombinant farnesyl transferase 4.5 nM, Ras substrate protein 1.5 μM, tritium-farnesylpyrophosphate 0.15 μM, 30 minutes at 37° C.; read-out: H-Ras IC50
Ras farnesyl transferase [3] = target: T2, Ras farnesyl transferase (Rattus norvegicus, UniProt Q02293+Q04631); test: In vivo (cellular) inhibitory activity for Ras farnesyl transferase, Rat2 cell line transformed with fused protein of H-Ras substituted with polybasic lysine domain at C-terminus of K-Ras; type: cell-based; conditions: Rat2 cell line transformed with H-Ras fused with polybasic lysine domain of K-Ras C-terminus; concentration inhibiting 50% of farnesyl bonding; read-out: K-Ras CIC50
T2 construct: endogenous in cells; host or cells: Rat2 fibroblasts transformed with H-Ras or with an H-Ras/K-Ras C-terminus fusion
Summary of the method: (§1)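 Transformed Rat2 fibroblasts (H-Ras or H-Ras/K-Ras polybasic-tail fusion) treated with compound in 1% DMSO; after 4 h labelled with [35S]methionine 150 μCi/ml for 20 h. Lysates immunoprecipitated with anti-Ras Y13-259, resolved by 13.5% SDS-PAGE and autoradiography; CIC50 = concentration inhibiting 50% of Ras farnesylation from band intensities.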

Ras farnesyl transferase [4] = target: T2, Ras farnesyl transferase; test: In vivo (cellular) inhibitory activity for Ras farnesyl transferase, Rat2 cell line which expresses C-Harvey-Ras protein; type: cell-based; conditions: Rat2 cell line expressing C-Harvey-Ras; concentration inhibiting 50% of farnesyl bonding of Ras protein; read-out: H-Ras CIC50
Summary of the method: as §1

SMILES | IC50 (Ras farnesyl transferase [1]) [nM] | IC50 (Ras farnesyl transferase [2]) [nM] | IC50 (Ras farnesyl transferase [3]) [nM] | IC50 (Ras farnesyl transferase [4]) [nM]
COCCN(C)C(=O)c1cn(Cc2cncn2CCc2ccc(F)cc2)cc1-c1cccc2ccccc12 [Compound 35, 1-[1-(4-Fluoro)phenethyl-1H-imidazol-5-yl]methyl-3-[N-(2-methoxyethyl)-N-methyl]carbamoyl-4-(naphthalen-1-yl)-1H-pyrrole] | 2 | 1 | 10000 to 50000 | 25
COCCN(C)C(=O)c1cn(Cc2cncn2Cc2ccc(F)cc2)cc1-c1cccc2ccccc12 [Compound 127, 1-[1-(4-fluorobenzyl)-1H-imidazol-5-yl]methyl-3[N-(2-methoxyethyl)-N-methyl]carbamoyl-4-(naphthalen-1-yl)-1H-pyrrole] | 5 | 2 | 5000 | 15
COCCN(C)C(=O)c1cn(Cc2cncn2CCc2cccc3ccccc23)cc1-c1cccc2ccccc12 [Compound 31, 3-[N-(2-Methoxyethyl)-N-methyl]carbamoyl-4-(naphthalen-yl)-1-{1-[2-(naphthalen-1-yl)ethyl]-1H-imidazol-5-yl}methyl-1H-pyrrole] | 5 | 2 | 10000 to 20000 | 12
COCCN(C)C(=O)c1cn(Cc2cncn2Cc2ccc(Cl)cc2)nc1-c1cccc2ccccc12 [Compound 155, 1-[1-(4-Chlorobenzyl)-1H-imidazol-5-ylmethyl]-4-[N-(2-methoxyethyl)-N-methyl]-carbamoyl-3-(naphthalen-1-yl)-1H-pyrazole] | 200 | 20 | 15000 | 100
C[C@@H](c1ccccc1)n1cncc1Cn1cc(C(=O)N2CCOCC2)c(-c2cccc3ccccc23)c1 [Compound 12, 1-[1-((S)-α-Methylbenzyl)-1H-imidazol-5-ylmethyl]-3-(morpholin-4-yl)carbonyl-4-(naphthalen-1-yl)-1H-pyrrole] | 6.6 | 5 | 10000 to 50000 | 25
O=C(c1ccc(Oc2ccccc2)cc1)c1cn(Cc2c[nH]cn2)cc1-c1cccc2ccccc12 [Compound 67] | 100 to 10000 | 20 | > 50000 | 3000
COCCN(C)C(=O)c1cn(Cc2cncn2CCc2ccc3ccccc3c2)cc1-c1cccc2ccccc12 [Compound 41, 3-[N-(2-Methoxyethyl)-N-methyl]carbamoyl-4-(naphthalen-1-yl)-1-{1-[2-(naphthalen-2-yl)ethyl]-1H-imidazol-5-yl}methyl-1H-pyrrole] | 4 | 3 | 10000 to 50000 | 15
O=C(c1cn(Cc2c[nH]cn2)cc1-c1cccc2ccccc12)N1CCCCC1 [Compound 84] | 1830 | 720 | 10000 to 100000 | 1000 to 50000
CC(c1ccccc1)n1cncc1Cn1cc(C(=O)N2CCN(C)CC2)c(-c2cccc3ccccc23)c1 (stereo in doubt) [Compound 10, 1-[1-((R)-α-Methylbenzyl)-1H-imidazol-5-ylmethyl]-3-(4-methylpiperazin-1-yl)carbonyl-4-(naphthalen-1-yl)-1H-pyrrole] | 5 | 0.85 | 10000 to 50000 | 12.5
N#Cc1ccc(Cn2cncc2Cn2cc(C(=O)c3cccc(Br)c3)c(-c3cccc4ccccc34)c2)cc1 [Compound 76] | 100 to 10000 | 4 | 10000 to 100000 | 100 to 1000
CSCc1ccc(C(=O)c2cn(Cc3c[nH]cn3)cc2-c2cccc3ccccc23)cc1 [Compound 61] | 100 to 10000 | 740 | 10000 to 100000 | 1000 to 50000
CSCCc1ccc(C(=O)c2cn(Cc3c[nH]cn3)cc2-c2cccc3ccccc23)cc1 [Compound 62] | 100 to 10000 | 68 | 10000 to 100000 | 1000 to 50000
COc1ccccc1CCn1cncc1Cn1cc(C(=O)N2CCN(C)CC2)c(-c2cccc3ccccc23)c1 [Compound 18, 1-[1-(2-Methoxy)phenethyl-1H-imidazol-5-yl]methyl-3-[4-methylpiperazin-1-yl]carbonyl-4-(naphthalen-1-yl)-1H-pyrrole] | 2 | 1 | 10000 to 50000 | 25
O=C(c1cn(Cc2cncn2Cc2ccc3c(c2)OCO3)cc1-c1cccc2ccccc12)N1CCOCC1 [Compound 2, 1-[1-(3,4-Methylenedioxybenzyl)-1H-imidazol-5-ylmethyl]-3-(morpholin-4-yl)carbonyl-4-(naphthalen-1-yl)-1H-pyrrole] | 2 | 0.85 | 10000 to 50000 | 25
N#Cc1ccc(Cn2cncc2Cn2cc(C(=S)N3CCOCC3)c(-c3cccc4ccccc34)c2)cc1 [Compound 113, 1-[1-(4-Cyanobenzyl)-1H-imidazol-5-yl]methyl-3-(morpholin-4-yl)thiocarbonyl-4-(naphthalen-1-yl)-1H-pyrrole] | < 100 | 4 | 10000 to 100000 | < 100
O=C(c1ccc(-c2ccccc2)cc1)c1cn(Cc2c[nH]cn2)cc1-c1cccc2ccccc12 [Compound 66] | 100 to 10000 | 120 | 10000 to 100000 | 1000 to 50000
